In patent US20220289765A1, “CRYSTAL OF CARCINOGENIC FUSED KINASE INHIBITOR AND APPLICATIONS THEREOF” (Simcere Pharmaceutical Co., Ltd., priority 2019, published 2022):
Where two headings read alike, the source gives them in different places.

Experiments:
[1] = Accelerated stability test of solid; assay type: physicochemical; conditions: for Purity: HPLC area purity
Description: Samples were respectively taken at 1 month, 2 months and 3 months to test the solid chemical purity (HPLC area purity) and crystal form.

[2] = Solid stability test, influence factors (high temperature, high humidity); assay type: physicochemical
Procedure: The sample placed under a high temperature condition was sealed and left to stand in a stability test chamber at 60° C. After 10 days, the sample was taken and tested for solid purity and crystal form. The sample placed under a high humidity condition was left to stand at room temperature and 92.5% RH humidity (the mouth of the sample bottle was wrapped with a layer of sealing film and 15˜20 small holes were evenly punched in the sealing film), and the samples were taken and tested for solid purity and crystal form after 5 days/10 days, respectively.

[3] = Pharmacokinetic test in mice; assay type: in vivo; conditions: mouse, plasma; PO (10 mL/kg [sic]) vs IV 3 mg/kg, male CD-1 mice; read-out: Bioavailability F %
Procedure: The drug concentrations of the compounds in plasma at different time points were determined by LC/MS/MS method after single intravenous (IV) and intragastric (PO) administration of the compounds to 7-9 week old male CD-1 mice as the test animals. The pharmacokinetic behaviors of the compounds of the present invention in mice were studied and pharmacokinetic properties thereof were evaluated.
The compounds were prepared into clear solutions using 5% DMSO+10% solutol+85% water as a solvent for administration in IV (intravenous injection) and PO (gavage) groups. The administration dosage of each compound was 3 mg/kg for the IV group and […] for the PO group.

[4] = Cassette pharmacokinetic test in mice (plasma, brain, CSF); assay type: in vivo, male CD-1 mice
Procedure: The pharmacokinetic behaviors of the compounds of the present invention in mice were studied and the pharmacokinetic properties thereof were evaluated.

[5] = Room temperature/92.5% RH, 5 days
[6] = Room temperature/92.5% RH, 10 days
[7] = PO @ 3 mpk, cassette, brain, 2 h
[8] = mouse, plasma, 1 mg/kg, IV @ 1 mpk, cassette, male CD-1 mice, read-out: Apparent Distribution Volume Vd
[9] = mouse, plasma, 1 mg/kg, IV @ 1 mpk, cassette, male CD-1 mice, read-out: Area under Curve AUC0-inf
[10] = mouse, plasma, 1 mg/kg, IV @ 1 mpk, cassette, male CD-1 mice, read-out: Half-life T1/2 (converted)
[11] = mouse, plasma, 1 mg/kg, IV @ 1 mpk, cassette, male CD-1 mice, read-out: Initial Concentration C0
[12] = mouse, plasma, 3 mg/kg, PO @ 3 mpk vs IV @ 1 mpk, cassette, male CD-1 mice, read-out: Bioavailability F %
[13] = mouse, plasma, 3 mg/kg, PO @ 3 mpk, cassette, male CD-1 mice, read-out: Area under Curve AUC0-inf
[14] = mouse, plasma, 3 mg/kg, PO @ 3 mpk, cassette, male CD-1 mice, read-out: Peak Concentration Cmax
[15] = mouse, plasma, 3 mg/kg, PO @ 3 mpk, cassette, male CD-1 mice, read-out: Time to Peak Tmax
[16] = male, CD-1, mouse, in vivo, iv, 1 mg/kg
[17] = male, CD-1, mouse, in vivo, po, 3 mg/kg

O=C1NC2(CC2)COc2ncc(F)cc2[C@H]2CCON2c2ccn3ncc1c3n2
Relative Purity* ([1]; 40° C./75% RH, 1 month): 100.0 | Purity ([1]; 40° C./75% RH, 1 month): 100.0 | Relative Purity* ([1]; 40° C./75% RH, 2 months): 100.0 | Purity ([1]; 40° C./75% RH, 2 months): 100.0 | Relative Purity* ([1]; 40° C./75% RH, 3 months): 100.0 | Purity ([1]; 40° C./75% RH, 3 months): 100.0 | Relative Purity* ([1]; 60° C./75% RH, 1 month): 99.9 | Purity ([1]; 60° C./75% RH, 1 month): 99.9 | Relative Purity* ([1]; 60° C./75% RH, 2 months): 100.0 | Purity ([1]; 60° C./75% RH, 2 months): 100.0 | Relative Purity* ([1]; 60° C./75% RH, 3 months): 100.0 | Purity ([1]; 60° C./75% RH, 3 months): 100.0 | Test Results Purity ([2]; 60° C, sealed, 10 days): 100.0% | Test Results Crystal Form ([2]; 60° C, sealed, 10 days, XRPD): Crystal Form C | Test Results Relative Purity* ([2]; 60° C, sealed, 10 days, purity of stability sample/purity of starting sample x100%): 100.0% | Test Results Crystal Form [2, 5]: Crystal Form C | Test Results Purity [2, 5]: 100.0% | Test Results Relative Purity* [2, 5]: 100.0% | Test Results Crystal Form [2, 6]: Crystal Form C | Test Results Purity [2, 6]: 100.0% | Test Results Relative Purity* [2, 6]: 100.0%

O=C(Nc1cnn2ccc(N3CCC[C@@H]3c3cc(F)ccc3F)nc12)N1CC[C@H](O)C1 [LOXO-101, Larotrectinib]
bioavailability [3]: 28% | Drug Concentration in Cerebrospinal Fluid at 0.5 h ([4]; PO @ 3 mpk, cassette, CSF): 15 nmol/kg | Drug Concentration in Cerebrospinal Fluid at 2 h ([4]; PO @ 3 mpk, cassette, CSF, 2 h): 3 nmol/kg | Drug Concentration in Brain at 0.5 h ([4]; PO @ 3 mpk, cassette, brain): 40 nmol/kg | Drug Concentration in Brain at 2 h [4, 7]: 20 nmol/kg | Vd [4, 8]: 1.57 L/kg | AUC(0-inf) [4, 9]: 1.72 µM·h | half-life [4, 10]: 72.6 min | C0 [4, 11]: 2380 nM | bioavailability [4, 12]: 51% | AUC(0-inf) [4, 13]: 2.72 µM·h | Cmax [4, 14]: 1350 nM | Tmax [4, 15]: 30 min

C[C@@H]1CCc2ncc(F)cc2[C@H]2CCCN2c2ccn3ncc(c3n2)C(=O)N1 [LOXO-195, reference compound]
bioavailability [3]: 74%

CN1CCN(c2ccc(C(=O)Nc3n[nH]c4ccc(Cc5cc(F)cc(F)c5)cc34)c(NC3CCOCC3)c2)CC1 [RXDX-101, Entrectinib]
AUC(0-inf) [4, 16]: 3.77 µM·h | C0 [4, 16]: 2810 nM | Vd [4, 16]: 1.24 L/kg | half-life [4, 16]: 116 min | AUC(0-inf) [4, 17]: 3.26 µM·h | Cmax [4, 17]: 586 nM | Tmax [4, 17]: 45 min | bioavailability [4, 17]: 23% | Drug Concentration in Brain at 2 h ([4]; male, CD-1, mouse, in vivo, po, 3 mg/kg, 2 h): 30 nmol/kg

C[C@H]1CNC(=O)c2cnn3ccc(nc23)N[C@H](C)c2cc(F)ccc2O1 [TPX-0005]
Drug Concentration in Cerebrospinal Fluid at 0.5 h ([4]; PO @ 3 mpk, cassette, CSF): 8 nmol/kg | Drug Concentration in Brain at 0.5 h ([4]; PO @ 3 mpk, cassette, brain): 50 nmol/kg | Drug Concentration in Brain at 2 h [4, 7]: 41 nmol/kg | Vd [4, 8]: 2.63 L/kg | AUC(0-inf) [4, 9]: 2.86 µM·h | half-life [4, 10]: 221 min | C0 [4, 11]: 2250 nM | bioavailability [4, 12]: 64% | AUC(0-inf) [4, 13]: 5.49 µM·h | Cmax [4, 14]: 1540 nM | Tmax [4, 15]: 45 min
